The nature of this series: Human HepG2 cell viability assay in 384 well format. Particulars: HepG2 cells, read-out: Inhibition. The arrangement: dose 125 nL, time 70.5 hour; cytotoxicity at 70.5 h: concentration not given beside the values. The format is toxicity, cell-based.

The source of these data is ChEMBL document CHEMBL3507680, “University of Dundee, Gates Library screen for HepG2 cell viability”.

As for `Cc1ccc(S(=O)(=O)Nc2ccc(-n3cccc3C(=O)O)c(C)c2)s1`, the cytotoxicity at 70.5 h was -3.61%. Next, `Cc1ccc(-c2cc(C(=O)NC(C)C(=O)N3CCCCC3)on2)cc1` (configuration not stated): 5.48%. To `Cc1ccccc1-c1cc(NC(=O)CC(C)C)n(CCO)n1` belongs 5.13%; to `CC(=O)Nc1nc(CN2CCCCC2Cn2cccn2)cs1` (configuration not stated), 6.38%; to `CCCNC(=O)Nc1cccc2c1CCN(S(C)(=O)=O)C2`, -1.5%.

In the case of `Cc1c(C(=O)NCC2CCCO2)nnn1-c1cccc2c1CCN(C)C2` (configuration not stated), the cytotoxicity at 70.5 h amounted to 19.8%. To `Cc1cccc(CNC(=O)CNc2cc(CO)ccc2Cl)c1` belongs -3.8%. To `CCN(C(=O)CCCOc1ccccc1F)c1ccncc1` belongs 1.58%. Next, `CN(C)c1cc(C(=O)NCCc2nnc(-c3ccco3)[nH]2)ccn1`: -5.78%; `NC(=O)Nc1cccc(Oc2ccccn2)c1`: -4.42%; `Cn1ccnc1CN(CCCO)C1CCCc2ccccc21` (configuration not stated): 7.41%. As for `OCc1ccc(Cl)c(NCc2cccnc2)c1`, the cytotoxicity at 70.5 h is 19.4%. To `O=C(C1CC1)N1CCCC1C1CCN(Cc2ccccc2)CC1` (configuration not stated) belongs 1.42%.

Turning to `c1coc(-c2nnc(CN3CCCC(CN4CCCCCC4)C3)o2)c1` (configuration not stated), the cytotoxicity at 70.5 h is -1.85%.

On to `Cn1ccnc1CNC(=O)N(CCCO)C1CCCc2ccccc21` (configuration not stated), for which the cytotoxicity at 70.5 h was 21.5%. Next, `CN(C)C(=O)Cc1nc(CN2CCOC(Cn3cccn3)C2)cs1` (configuration not stated): 1.45%; `CC(C)C(=O)N1CCN(Cc2csc(-c3ncccn3)n2)CC1`: -2.05%. To `Cc1nc(C)n(CC2CCCN(Cc3nnc(C(C)(C)C)o3)C2)n1` (configuration not stated) belongs -0.371%. Next, `N#Cc1ncn(CCC(=O)Nc2c(Cl)cccc2Cl)n1`: -6.06%; `Cc1ccc(NC(=O)N2CCOC(C)C2)cc1Cl` (configuration not stated): -7.15%; `CC(C)(C)NC(=O)CN1CCN(C(=O)Nc2ccc(F)cc2F)CC1`: 9.46%. As to `Cc1nnc(NC(=O)NC2CCOc3ccccc32)s1` (configuration not stated), the cytotoxicity at 70.5 h was -9.45%. To `COc1cccc(CN(C)C(=O)CCC(=O)c2ccc(Cl)cc2)c1OC` belongs -10.4%; to `COCCCN1CCC(NC(=O)C(C)C)CC1`, 7.82%. Next, `CCNC(=O)c1ccoc1CN1c2ccccc2CC1C` (configuration not stated): -5.21%; `Cc1noc(C)c1CNC(=O)N1CCC(CO)CC1`: -3.59%. For the molecule `Cc1ccc(C(=O)N2CCSCC2)cc1NC(=O)Cn1cncn1`, the cytotoxicity at 70.5 h was -6.81%. To `Cc1cccc(-n2cc(C(=O)N3CCn4c(C)nnc4C3)nn2)c1` belongs 9.22%; to `Cc1cc(-c2nnn(CCNS(C)(=O)=O)n2)ccc1F`, 1.75%. In the case of `O=C(NCC(O)c1cccc(F)c1)c1cccnc1O` (configuration not stated), the cytotoxicity at 70.5 h is -5.45%. Consider `Cc1ccc(OCC(=O)NCC(C)C)nc1`, for which the cytotoxicity at 70.5 h was -3.31%.

For the molecule `N#Cc1ncn(CC(=O)Nc2cc(Cl)ccc2F)n1`, the cytotoxicity at 70.5 h is -3.28%. As to `CSc1ccc(NS(=O)(=O)c2cnn(C)c2)cn1`, the cytotoxicity at 70.5 h is -1.76%. In the case of `N#CCSCCCN1CCN(C(=O)c2ccc(Cl)cc2)CC1`, the cytotoxicity at 70.5 h turned out to be 6.83%. Next, `Cc1ccc(C(=O)N2CCN(CCCSCC#N)CC2)o1`: -3.91%; `CCN(C(c1cccnc1)c1ccc2c(c1)CCO2)S(C)(=O)=O` (configuration not stated): -4.03%; `CCN1CCCN(C(=O)c2cnc(OC(C)C)c(Cl)c2)CC1`: 9.31%. To `CCc1nnc(CNCC2CCCN2c2cccnn2)o1` (configuration not stated) belongs -3.72%; to `CC(C)Cc1noc(CN2CCN(C(=O)c3ccco3)CC2)n1`, -9.38%; to `Cc1cnn(CC2CCCN2C(=O)CCCc2nc(C)no2)c1` (configuration not stated), 32.9%.

On to `CCc1csc(C2CCCN(C(=O)c3ccnc(N(C)C)c3)C2)n1` (configuration not stated), for which the cytotoxicity at 70.5 h is 19.9%.

As to `CCc1nnc(C(C)N2CCCN(C(=O)Oc3ccccc3)CC2)o1` (configuration not stated), the cytotoxicity at 70.5 h turned out to be 2.06%. To `CCC(=O)Nc1ccc(C(C)NC(=O)COCCOC)cc1` (configuration not stated) belongs 3.18%; to `CN(C)C(=O)N1CCN(CCn2nc3ccccn3c2=O)CC1`, -2.81%; to `CCOCC1CN(Cc2cnn(C)c2)Cc2ncn(C)c21` (configuration not stated), -9.79%. To `Cc1nccc([C@H]2C[C@@H]3CCN(C(=O)c4c(C)noc4C)C[C@H]3O2)n1` belongs 7.48%; to `O=C1CC2(CCN(Cc3ccoc3)C2)CN1c1cncnc1` (configuration not stated), -4.55%. `CN(C)C1COC2(CCN(Cc3ccncc3)CC2)C1` (configuration not stated): the cytotoxicity at 70.5 h is -7.75%. To `CC(=O)N1CCC2(CCCN(C(=O)c3ccc(Cl)c(C(F)(F)F)c3)C2)C1` (configuration not stated) belongs -14.2%; to `CCOCC1CN(c2ncccn2)Cc2cnn(CC3CCOCC3)c21` (configuration not stated), 9.85%; to `Cc1ccc(CNC(=O)C2=NOC3(CCCNC3)C2)cc1` (configuration not stated), -13.2%. Next, `O=C(NCC1Cn2nnc(-c3ccoc3)c2CO1)c1ccc[nH]1` (configuration not stated): -9.78%; `O=C(NCc1ccc(Cl)cc1)C1=NOC2(CCNC2)C1` (configuration not stated): -9.72%; `O=C(NCc1ccccc1)C1=NOC2(CCNC2)C1` (configuration not stated): -11%. For the molecule `O=C(c1ccoc1)N1CC[C@@H](N2CCOCC2)[C@@H]1Cc1ccccc1`, the cytotoxicity at 70.5 h is -10.9%. With `CCOCC1CN(Cc2cnn(C)c2)Cc2c1cnn2CC` (configuration not stated), the cytotoxicity at 70.5 h turned out to be 7.67%. To `CCOCC1CN(Cc2ccc(F)cc2)Cc2nn(C)cc21` (configuration not stated) belongs -11.9%; to `Cn1cc(N2CC3(COCCN(Cc4nccs4)C3)OCC2=O)cn1` (configuration not stated), -9.93%; to `COCCC(=O)N1CC[C@@H](N2CCOCC2)[C@@H]1Cc1ccccc1`, -8.94%. To `O=C(c1cnccn1)N1C[C@@H](OCc2cccnc2)[C@H]2OCCC[C@H]21` belongs 8.16%; to `COCC(=O)N1C[C@@H](OCc2cccnc2)[C@H]2OCCC[C@@H]21`, 14.3%. To `CCOCC1CN(Cc2cccnc2)Cc2nn(C)cc21` (configuration not stated) belongs -11.3%; to `Cc1nnc(N2CC[C@H]3O[C@H](C(=O)NCc4ccccn4)CC[C@H]32)s1`, -6.62%.

Take `O=C1NC2(CCN(Cc3ccoc3)CC2)CC1c1ccncc1` (configuration not stated): the cytotoxicity at 70.5 h stood at 11%.

As to `CCn1ncc2c1C(COCC1CC1)CN(c1ccncn1)C2` (configuration not stated), the cytotoxicity at 70.5 h is -8.04%. Consider `CN(Cc1ccco1)[C@@H]1CN(Cc2nccs2)C[C@@H]2CCCO[C@@H]21`, for which the cytotoxicity at 70.5 h was -5.05%. In the case of `CN(Cc1cncnc1)[C@@H]1CN(Cc2ccco2)C[C@@H]2CCCO[C@@H]21`, the cytotoxicity at 70.5 h is -14.6%.

As for `CCOCC1CN(c2ccncn2)Cc2cnn(CC)c21` (configuration not stated), the cytotoxicity at 70.5 h is -8.6%. Turning to `O=C1NC2(CCN(Cc3ccsc3)CC2)CC1c1ccncc1` (configuration not stated), the cytotoxicity at 70.5 h is -9.73%.

For `COCC1CN(c2ccncn2)Cc2cnn(CC3CCCC3)c21` (configuration not stated), the cytotoxicity at 70.5 h is -11.3%. Next, `N#Cc1cccc(CN2CCC3(CC2)CC(c2ccncc2)C(=O)N3)c1` (configuration not stated): -0.0024%.

Take `CN(Cc1ccco1)[C@@H]1CN(Cc2ccccn2)C[C@@H]2CCCO[C@@H]21`: the cytotoxicity at 70.5 h was -9.21%.
